# Results as given in publication PMC9532399, “The lysosomal transporter TAPL has a dual role as peptide translocator and phosphatidylserine floppase” (Nature Communications, 2022).
# Changes are numbered by the printed parent chain.
# Assays:
# TAPL Y405A mutant = biological target: T1, TAPL Y405A mutant (Mus musculus, UniProt Q9JJ59, Y405A); assay: Peptide transport assay, Y405A; assay type: biochemical; conditions: 9-mer 10 mM (sic), 3 mM ATP
# T1 construct: thrombin cleavage site (C); eGFP (C); 10XHis (C); made in house; host or cells: Trichoplusia ni High Five (Hi5) insect cells, baculovirus (pVL1393)
# T1 sequence (Q9JJ59 143-762 Y405A): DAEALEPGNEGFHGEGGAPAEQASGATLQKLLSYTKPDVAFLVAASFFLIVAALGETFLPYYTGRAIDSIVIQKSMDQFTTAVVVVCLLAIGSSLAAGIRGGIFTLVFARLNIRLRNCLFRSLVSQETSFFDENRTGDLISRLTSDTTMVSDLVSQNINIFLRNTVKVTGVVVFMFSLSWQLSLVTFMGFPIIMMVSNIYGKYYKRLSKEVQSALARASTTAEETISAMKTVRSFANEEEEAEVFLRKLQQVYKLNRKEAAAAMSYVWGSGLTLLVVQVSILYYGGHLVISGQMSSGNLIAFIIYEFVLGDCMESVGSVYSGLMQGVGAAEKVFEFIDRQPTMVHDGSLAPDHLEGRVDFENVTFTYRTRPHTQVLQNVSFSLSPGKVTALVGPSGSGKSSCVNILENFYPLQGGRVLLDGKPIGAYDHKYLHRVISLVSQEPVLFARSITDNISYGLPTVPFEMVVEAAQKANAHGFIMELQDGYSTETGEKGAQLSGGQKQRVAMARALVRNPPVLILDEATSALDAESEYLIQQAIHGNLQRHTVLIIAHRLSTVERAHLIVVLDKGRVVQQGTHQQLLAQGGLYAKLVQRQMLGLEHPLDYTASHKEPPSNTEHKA
# Protocol: (§1) Proteoliposomes for peptide transport assays were prepared according to the protocol of Zhao et al., with some modifications. Briefly, E. coli polar lipid extract dissolved in chloroform was dried under a gentle stream of nitrogen. The thin film of lipids was placed under a desiccator overnight to completely remove residual chloroform and then hydrated in 1X PBS buffer pH 7.4 (137 mM NaCl, 2.7 mM KCl, 8 mM Na2HPO4, and 2 mM KH2PO4) with 10 mM MgCl2 and 5% (v/v) glycerol. After water bath sonication at 22 °C for 5 min (Powersonic 610, KLEENTEK), the lipid solution was extruded using a Mini-Extruder equipped with a polycarbonate membrane filter (200 nm pore) (Avanti Polar Lipids, Inc.) to obtain unilamellar vesicles, which were destabilized with 0.36% (w/v) DM. The DM-purified protein and lipid suspension were mixed in a 1:50 (w/w) ratio. After incubation at 4 °C for 2 h, the mixture was treated with Bio-Beads SM-2 resin (60 and 120 mg, see above) at 4 °C for a total of 18 h to remove detergent. The proteoliposomes were collected by centrifugation at 200,000×g for 1.5 h at 4 °C and resuspended in the buffer described above.
# (§2) The peptide transport activity of ΔTMD0 was measured as described previously. Briefly, 50 μL of ΔTMD0-loaded proteoliposomes (~0.6 μg protein) were added into 200 μL reaction buffer containing 1X PBS pH 7.4, 3 mM ATP, and 10 mM MgCl2 in the presence or absence of 10 μM 5-IAF-labeled peptides. To investigate transport activity, the mixture was incubated at 37 °C for 10 min. The reaction was terminated by incubating the mixture for 20 min on ice. Proteoliposomes were collected by centrifugation at 200,000×g for 30 min and then washed twice with 1X PBS. The proteoliposomes were completely disrupted by adding 10% (w/v) SDS solution (final concentration, 2%). The transported peptide was measured using a microplate reader (Gemini XPS) with excitation at 485 nm and emission at 520 nm.
# TAPL E456A mutant = assay: Peptide transport assay, E456A; assay type: biochemical, mouse; conditions: 9-mer 10 mM (sic), 3 mM ATP
# Protocol: as §1, §2
# mouse TAPL ΔTMD0 = biological target: T2, mouse TAPL ΔTMD0 (Mus musculus, UniProt Q9JJ59); assay: Peptide transport assay, ΔTMD0 proteoliposomes; assay type: biochemical; conditions: for Transport activity: peptide 10 mM (sic)
# T2 construct: thrombin cleavage site (C); eGFP (C); 10XHis (C); made in house; host or cells: Trichoplusia ni High Five (Hi5) insect cells, baculovirus (pVL1393)
# T2 sequence (Q9JJ59 143-762): T1 sequence (Q9JJ59 143-762 Y405A) with A263Y
# Protocol: as §1, §2
substance,measurement,setting,value
"RRYQNSTC^5-IAFL [9-mer, 5-IAF-labeled peptide of 9 residues (RRYQNSTC^5-IAFL)]",Transport activity,TAPL Y405A mutant; replicate I,18.1424%
same,Transport activity,TAPL Y405A mutant; replicate II,19.1407%
same,Transport activity,TAPL Y405A mutant; replicate III,12.1153%
same,Transport activity,"TAPL Y405A mutant; wild-type = 100%, mean n=3",16.4661%
same,Transport activity,TAPL E456A mutant; replicate I,48.9147%
same,Transport activity,TAPL E456A mutant; replicate II,53.6761%
same,Transport activity,TAPL E456A mutant; replicate III,40.3825%
same,Transport activity,"TAPL E456A mutant; wild-type = 100%, mean n=3",47.6578%
same,peptide transport,"mouse TAPL ΔTMD0; ATP-dependent, 5-IAF-labeled peptides",preferentially transported
same,Transport activity,"mouse TAPL ΔTMD0; + 3 mM ATP, 9-mer + ATP set at 100%, 37 °C 10 min, mean n=3",100%
same,Transport activity,"mouse TAPL ΔTMD0; + 3 mM ATP, replicate I",101.702%
same,Transport activity,"mouse TAPL ΔTMD0; + 3 mM ATP, replicate II",98.4079%
same,Transport activity,"mouse TAPL ΔTMD0; + 3 mM ATP, replicate III",99.8902%
same,Transport activity,"mouse TAPL ΔTMD0; no ATP, 9-mer + ATP set at 100%, mean n=3",5.331%
same,Transport activity,"mouse TAPL ΔTMD0; no ATP, replicate I",5.213%
same,Transport activity,"mouse TAPL ΔTMD0; no ATP, replicate II",5.414%
same,Transport activity,"mouse TAPL ΔTMD0; no ATP, replicate III",5.365%
